Measurements published in ChEMBL document CHEMBL3046846, “Synthesis of N-Alkyl-2, 3-dimethyl-5-[N-(5-halo-2-methylphenyl)carbamoyl]-6-pyrazinecarboxamides and Their Herbicidal Activity” (J Pestic Sci, 1997).

Key:
[1] = test system: Veronica persica; assay: Herbicidal activity against Veronica persica at 500 g/ha after 2 weeks; assay type: functional
[2] = test system: Galium spurium; assay: Herbicidal activity against Galium spurium var. echinospermon (Wally.) Hayek at 500 g/ha after 2 weeks; assay type: functional
[3] = test system: Xanthium strumarium; assay: Herbicidal activity against Xanthium strumarium (cocklebur) 500 g/ha after 2 weeks; assay type: functional
[4] = test system: Abutilon theophrasti; assay: Herbicidal activity against Abutilon theophrasti (velvetleaf) at 500 g/ha after 2 weeks; assay type: functional
[5] = test system: Avena fatua; assay: Herbicidal activity against Avena fatua at 500 g/ha after 2 weeks; assay type: functional
[6] = test system: Echinochloa crus-galli; assay: Herbicidal activity against Echinochloa crus-galli (barnyard grass) at 500 g/ha after 2 weeks; assay type: functional
[7] = test system: Glycine max; assay: Herbicidal activity against Glycine max (soybean) at 500 g/ha after 2 weeks; assay type: organism-based; settings: in vivo, 336 h
[8] = test system: Triticum aestivum; assay: Herbicidal activity against Triticum aestivum (wheat) at 500 g/ha after 2 weeks; assay type: ADME, organism-based; settings: in vivo, 336 h
[9] = test system: Veronica persica; assay: Herbicidal activity against Veronica persica at 250 g/ha after 2 weeks; assay type: functional
[10] = test system: Galium spurium; assay: Herbicidal activity against Galium spurium var. echinospermon (Wally.) Hayek at 250 g/ha after 2 weeks; assay type: functional
[11] = test system: Xanthium strumarium; assay: Herbicidal activity against Xanthium strumarium (cocklebur) 250 g/ha after 2 weeks; assay type: functional
[12] = test system: Abutilon theophrasti; assay: Herbicidal activity against Abutilon theophrasti (velvetleaf) at 250 g/ha after 2 weeks; assay type: functional
[13] = test system: Echinochloa crus-galli; assay: Herbicidal activity against Echinochloa crus-galli (barnyard grass) at 250 g/ha after 2 weeks; assay type: functional
[14] = test system: Avena fatua; assay: Herbicidal activity against Avena fatua at 250 g/ha after 2 weeks; assay type: functional
[15] = test system: Glycine max; assay: Herbicidal activity against Glycine max (soybean) at 250 g/ha after 2 weeks; assay type: organism-based; settings: in vivo, 336 h
[16] = test system: Triticum aestivum; assay: Herbicidal activity against Triticum aestivum (wheat) at 250 g/ha after 2 weeks; assay type: organism-based; settings: in vivo, 336 h
[17] = test system: Veronica persica; assay: Herbicidal activity against Veronica persica at 5000 g/ha after 2 weeks; assay type: functional
[18] = test system: Galium spurium; assay: Herbicidal activity against Galium spurium var. echinospermon (Wally.) Hayek at 5000 g/ha after 2 weeks; assay type: functional
[19] = test system: Xanthium strumarium; assay: Herbicidal activity against Xanthium strumarium (cocklebur) 5000 g/ha after 2 weeks; assay type: functional
[20] = test system: Abutilon theophrasti; assay: Herbicidal activity against Abutilon theophrasti (velvetleaf) at 5000 g/ha after 2 weeks; assay type: functional
[21] = test system: Echinochloa crus-galli; assay: Herbicidal activity against Echinochloa crus-galli (barnyard grass) at 5000 g/ha after 2 weeks; assay type: functional
[22] = test system: Avena fatua; assay: Herbicidal activity against Avena fatua at 5000 g/ha after 2 weeks; assay type: functional
[23] = test system: Glycine max; assay: Herbicidal activity against Glycine max (soybean) at 5000 g/ha after 2 weeks; assay type: organism-based; settings: in vivo, 336 h
[24] = test system: Triticum aestivum; assay: Herbicidal activity against Triticum aestivum (wheat) at 5000 g/ha after 2 weeks; assay type: ADME, organism-based; settings: in vivo, 336 h
[25] = test system: Xanthium strumarium; assay: Herbicidal activity against Xanthium strumarium (cocklebur) 200 g/ha after 2 weeks; assay type: functional
[26] = test system: Abutilon theophrasti; assay: Herbicidal activity against Abutilon theophrasti (velvetleaf) at 200 g/ha after 2 weeks; assay type: functional
[27] = test system: Echinochloa crus-galli; assay: Herbicidal activity against Echinochloa crus-galli (barnyard grass) at 200 g/ha after 2 weeks; assay type: functional
[28] = test system: Avena fatua; assay: Herbicidal activity against Avena fatua at 200 g/ha after 2 weeks; assay type: functional
[29] = test system: Glycine max; assay: Herbicidal activity against Glycine max (soybean) at 200 g/ha after 2 weeks; assay type: organism-based; settings: in vivo, 336 h
[30] = test system: Triticum aestivum; assay: Herbicidal activity against Triticum aestivum (wheat) at 200 g/ha after 2 weeks; assay type: organism-based; settings: in vivo, 336 h
[31] = test system: Veronica persica; assay: Herbicidal activity against Veronica persica at 200 g/ha after 2 weeks; assay type: functional
[32] = test system: Galium spurium; assay: Herbicidal activity against Galium spurium var. echinospermon (Wally.) Hayek at 200 g/ha after 2 weeks; assay type: functional
[33] = test system: Veronica persica; assay: Herbicidal activity against Veronica persica at 140 g/ha after 2 weeks; assay type: functional
[34] = test system: Galium spurium; assay: Herbicidal activity against Galium spurium var. echinospermon (Wally.) Hayek at 140 g/ha after 2 weeks; assay type: functional
[35] = test system: Xanthium strumarium; assay: Herbicidal activity against Xanthium strumarium (cocklebur) 140 g/ha after 2 weeks; assay type: functional
[36] = test system: Abutilon theophrasti; assay: Herbicidal activity against Abutilon theophrasti (velvetleaf) at 140 g/ha after 2 weeks; assay type: functional
[37] = test system: Echinochloa crus-galli; assay: Herbicidal activity against Echinochloa crus-galli (barnyard grass) at 140 g/ha after 2 weeks; assay type: functional
[38] = test system: Avena fatua; assay: Herbicidal activity against Avena fatua at 140 g/ha after 2 weeks; assay type: functional
[39] = test system: Glycine max; assay: Herbicidal activity against Glycine max (soybean) at 140 g/ha after 2 weeks; assay type: organism-based; settings: in vivo, 336 h
[40] = test system: Triticum aestivum; assay: Herbicidal activity against Triticum aestivum (wheat) at 140 g/ha after 2 weeks; assay type: organism-based; settings: in vivo, 336 h

| Structure (SMILES) | Activity [1] | Activity [2] | Activity [3] | Activity [4] | Activity [5] | Activity [6] | Activity [7] | Activity [8] | Activity [9] | Activity [10] | Activity [11] | Activity [12] | Activity [13] | Activity [14] | Activity [15] | Activity [16] | Activity [17] | Activity [18] | Activity [19] | Activity [20] | further results |
| --- | --- | --- | --- | --- | --- | --- | --- | --- | --- | --- | --- | --- | --- | --- | --- | --- | --- | --- | --- | --- | --- |
| CCNC(=O)c1nc(C)c(C)nc1C(=O)Nc1cc(Cl)ccc1C | 70% | <10% | 10% | <10% | <10% | <10% | < 10% | < 10% | <10% | <10% | <10% | <10% | <10% | <10% | < 10% | < 10% | 95% | 30% | 95% | 30% | Activity [21]: 50%; Activity [22]: <10%; Activity [23]: < 10%; Activity [24]: 10% |
| CCCNC(=O)c1nc(C)c(C)nc1C(=O)Nc1cc(Cl)ccc1C | 70% | <10% | 50% | <10% | <10% | <10% | < 10% | < 10% | 95% | <10% | <10% | <10% | <10% | <10% | < 10% | < 10% | 95% | 50% | 30% | 95% | Activity [21]: 50%; Activity [22]: <10%; Activity [23]: < 10%; Activity [24]: 30% |
| Cc1ccc(Cl)cc1NC(=O)c1nc(C)c(C)nc1C(=O)NC(C)C | 95% | <10% | 50% | <10% | <10% | <10% | < 10% | < 10% | 50% | <10% | 50% | <10% | <10% | <10% | < 10% | < 10% | 95% | 95% | 95% | 95% | Activity [21]: 70%; Activity [22]: 50%; Activity [23]: < 10%; Activity [24]: 30% |
| CCCCNC(=O)c1nc(C)c(C)nc1C(=O)Nc1cc(Cl)ccc1C | 50% | <10% | <10% | <10% | <10% | <10% | < 10% | < 10% | 10% | <10% | <10% | <10% | <10% | <10% | < 10% | < 10% | 95% | 30% | 50% | 95% | Activity [21]: 50%; Activity [22]: <10%; Activity [23]: < 10%; Activity [24]: 30% |
| Cc1ccc(Cl)cc1NC(=O)c1nc(C)c(C)nc1C(=O)NCC(C)C | 95% | <10% | <10% | <10% | <10% | 30% | < 10% | < 10% | 30% | <10% | <10% | <10% | <10% | <10% | < 10% | < 10% | 95% | 95% | 95% | 95% | Activity [21]: 95%; Activity [22]: 95%; Activity [23]: < 10%; Activity [24]: 70% |
| CC[C@@H](C)NC(=O)c1nc(C)c(C)nc1C(=O)Nc1cc(Cl)ccc1C | 95% | <10% | <10% | <10% | <10% | <10% | < 10% | < 10% | 70% | <10% | <10% | <10% | <10% | <10% | < 10% | < 10% | 95% | 95% | 95% | 95% | Activity [21]: 95%; Activity [22]: 30%; Activity [23]: < 10%; Activity [24]: 30% |
| CC[C@H](C)NC(=O)c1nc(C)c(C)nc1C(=O)Nc1cc(Cl)ccc1C | 95% | <10% | <10% | <10% | <10% | <10% | < 10% | < 10% | 95% | <10% | <10% | <10% | <10% | <10% | < 10% | < 10% | 95% | 50% | 95% | 95% | Activity [21]: 95%; Activity [22]: 30%; Activity [23]: < 10%; Activity [24]: 30% |
| CCC(C)NC(=O)c1nc(C)c(C)nc1C(=O)Nc1cc(Cl)ccc1C (racemic) | 70% | <10% | <10% | <10% | <10% | 10% | < 10% | < 10% | 70% | <10% | <10% | <10% | <10% | <10% | < 10% | < 10% | 95% | 95% | 95% | 95% | Activity [21]: 95%; Activity [22]: 50%; Activity [23]: < 10%; Activity [24]: 70% |
| CS(=O)(=O)NC(=O)c1cc(Oc2ccc(C(F)(F)F)cc2Cl)ccc1[N+](=O)[O-] [FOMESAFEN] |  |  |  |  |  |  |  |  |  |  |  |  |  |  |  |  |  |  |  |  | Activity [25]: 50%; Activity [26]: 95%; Activity [27]: 30%; Activity [28]: <10%; Activity [29]: < 10%; Activity [30]: 30%; Activity [31]: 95%; Activity [32]: 70% |
| CC(C)C1(C)N=C(c2nc3ccccc3cc2C(=O)O)NC1=O (stereo not drawn) [IMAZAQUIN] |  |  |  |  |  |  |  |  |  |  |  |  |  |  |  |  |  |  |  |  | Activity [33]: 50%; Activity [34]: 70%; Activity [35]: 95%; Activity [36]: 30%; Activity [37]: 30%; Activity [38]: 50%; Activity [39]: < 10%; Activity [40]: 70% |
